For this experiment, the system named is TGR(mREN2)27 rats. As to the kind of experiment: Rat model of heart failure treated with a galectin-3 inhibitor. In kind it is in vivo. The protocol: In this study, N-acetyllactosamine (Gal3i) or an angiotensin-converting enzyme inhibitor (ACEi) was administered to TGR(mREN2)27 rats. Untreated TGR(mREN2)27 (REN2) and Sprague-Dawley (SD) rats were used as controls. TGR(mREN2)27 rats overexpress Ren-2, which leads to development of severe hypertension and ultimately heart failure. Fractional shortening, left ventricular end diastolic pressure (LVEDP), fibrosis, and survival were evaluated as a function of time.

`CC(=O)N[C@H]1C(O)O[C@H](CO)[C@@H](O[C@@H]2O[C@H](CO)[C@H](O)[C@H](O)[C@H]2O)[C@@H]1O` (some centres unmarked) [Gal3i, N-acetyllactosamine]: the fractional shortening entry (FIG. 3A, TGR(mREN2)27 rats, relative to placebo-treated REN2 control) is recorded as “prevented a significant loss”. Also, the “rate of decrease in fractional shortening compared with SD control group” value (FIG. 3B, SD control group did not develop heart failure) is “comparable to that of the SD control group”. For the setting “FIG. 3B, relative to placebo-treated REN2 control”, the “reduction in fractional shortening from beginning of the study to sacrifice” value was “significantly slowed the reduction in fractional shortening”. The “left ventricular end diastolic pressure (LVEDP)” value (FIG. 3C, relative to placebo-treated REN2 control) was “significantly improved the LVEDP”. Further, the “Tau compared with SD control group” value (FIG. 3D) is “comparable to that of the SD control group”. For the same compound, the “left ventricle pressure decay (Tau)” value (FIG. 3D, relative to placebo-treated REN2 control) was “significantly improved the Tau”. In addition, for the setting “FIG. 4A/4B, cardiac tissue sections, compared to placebo-treated REN2 control group”, the cardiac fibrosis result is given as “significantly inhibited fibrosis”. The “survival (rats remaining, Kaplan-Meier)” value (FIG. 5, after 40 days, placebo-treated REN2 rats about 65%) was “approximately 80%”.

For the origin of these results see US20130029955A1, “INHIBITORS OF GALECTIN-3 AND METHODS OF USE THEREOF” (priority 2011, published 2013).
